Test results reported in patent publication US9549917B2, “Heterocyclic-substituted benzofuran derivatives and methods of use thereof for the treatment of viral diseases” (priority 2011, dated 2017).

Experiments:
HCV replicon genotype 1b = test: HCV replicon assay, genotype 1b (cell ELISA for NS3/4A); type: cell-based; details: Hepatitis C virus, 96 h, read-out: 1b IC50 (nM)
Procedure: (§1) Measurement of inhibition by compounds was performed using the HCV replicon system. Several different replicons encoding different HCV genotypes or mutations were used. In addition, potency measurements were made using different formats of the replicon assay, including different ways of measurements and different plating formats. See Jan M. Vrolijk et al., A replicons-based bioassay for the measurement of interferons in patients with chronic hepatitis C, 110 J. V[…] 201 (2003); Steven S. Carroll et al., Inhibition of Hepatitis C Virus RNA Replication by 2′-Modified Nucleoside Analogs, 278(14) J. BIOLOGICAL CHEMISTRY 11979 (2003). However, the underlying principles are common to all of these determinations, and are outlined below.
(§2) Stable neomycin phosphotransferase encoding replicons-harboring cell lines were used, so all cell lines were maintained under G418 selection prior to the assay. Potency was determined using a cell ELISA assay with an antibody to the replicons encoded NS3/4a protease. See Caterina Trozzi et al., In Vitro Selection and Characterization of Hepatitis C Virus Serine Protease Variants Resistant to an Active-Site Peptide Inhibitor, 77(6) J. Virol. 3669 (2003). To initiate an assay, replicon cells were plated in the presence of a dilution series of test compound in the absence of G418. Typically, the assays were performed in a 96-well plate formate for manual operation, or a 384-well plate format for automated assay. Replicon cells and compound were incubated for 96 hours. At the end of the assay, cells were washed free of media and compound, and the cells were then lysed. RNA was quantified indirectly through detection of replicon-encoded NS3/4A protein levels, through an ELISA-based assay with an antibody specific for NS3/4A. IC50 determinations were calculated as a percentage of a DMSO control by fitting the data to a four-parameter fit function and the data obtained is provided in the table below.
(§3) Data for selected compounds of the present invention was obtained for genotypes 1a and 1b using this method and is provided in the table below: […]

HCV replicon genotype 1a = test: HCV replicon assay, genotype 1a (cell ELISA for NS3/4A); type: cell-based; details: Hepatitis C virus, 96 h, read-out: 1a IC50 (nM)
Procedure: as §1, §2, §3

| Compound | IC50 (HCV replicon genotype 1b) | IC50 (HCV replicon genotype 1a) |
| --- | --- | --- |
| CNC(=O)c1c(-c2ccc(F)cc2)oc2cc(N(C)S(C)(=O)=O)c(-c3cnnc(-c4cc5ncccc5[nH]4)c3)cc12 [Compound 286] | 5 nM | 17 nM |
| CNC(=O)c1c(-c2ccc(F)cc2)oc2cc(N(C)S(C)(=O)=O)c(-c3cncc(-c4cc5ccccc5[nH]4)n3)cc12 [Compound 113] | 0.8 nM | 0.3 nM |
| CNC(=O)c1c(-c2ccc(F)cc2)oc2cc(N(C)S(C)(=O)=O)c(-c3ccc(O)c(-c4cc5c(C#N)nccc5[nH]4)n3)cc12 [Compound 231] | 47 nM | 339 nM |
| CNC(=O)c1c(-c2ccc(F)cc2)oc2cc(N(C)S(C)(=O)=O)c(-c3ccc(OC)c(-c4cc5ccccn5n4)n3)cc12 [Compound 254, 2-(4-fluorophenyl)-5-(5-methoxy-6-(pyrazolo[1,5-a]pyridin-2-yl)pyridin-2-yl)-N-methyl-6-(N-methylmethylsulfonamido)benzofuran-3-carboxamide] | 26 nM | 214 nM |
| CNC(=O)c1c(-c2ccc(F)cc2)oc2cc(N(C)S(C)(=O)=O)c(-c3cc(-c4cc5c(F)cccc5[nH]4)nc(N)n3)cc12 [Compound 272] | 4.4 nM | 4.2 nM |
| CNC(=O)c1c(-c2ccc(F)cc2)oc2cc(N(C)S(C)(=O)=O)c(-c3cnnc(-c4cc5c(C#N)cccc5n4C)c3)cc12 [Compound 273] | 0.2 nM | 0.3 nM |
| CNC(=O)c1c(-c2ccc(F)cc2)oc2cc(N(C)S(C)(=O)=O)c(-c3cncc(-c4cc5ccncc5s4)c3)cc12 [Compound 179] | 5.1 nM | 8.2 nM |
| CNC(=O)c1c(-c2ccc(F)cc2)oc2cc(N(C)S(C)(=O)=O)c(-c3cc(-c4cc5ccccc5[nH]4)c(OC)nn3)cc12 [Compound 209] | 4.7 nM | 8.9 nM |
| CNC(=O)c1c(-c2ccc(F)cc2)oc2cc(N(C)S(C)(=O)=O)c(-c3cnc(OC)c(-c4nc5c(o4)CCCC5(F)F)c3)cc12 [Compound 94] | 1.9 nM | 0.8 nM |
| CNC(=O)c1c(-c2ccc(F)cc2)oc2cc(N(C)S(C)(=O)=O)c(-c3cnnc(-c4cc5c(F)cccc5n4CCO)c3)cc12 [Compound 277] | 6.7 nM | 7.4 nM |
| CNC(=O)c1c(-c2ccc(F)cc2)oc2cc(N(C)S(C)(=O)=O)c(-c3ccnc(-c4cc5c(C#N)cccc5[nH]4)c3)cc12 [Compound 233] | 0.4 nM | 0.1 nM |
| CNC(=O)c1c(-c2ccc(F)cc2)oc2cc(N(C)S(C)(=O)=O)c(-c3cc(-c4cc5c(F)cccc5[nH]4)c(OC)nn3)cc12 [Compound 218] | 9.2 nM | 4.2 nM |
| CNC(=O)c1c(-c2ccc(F)cc2)oc2cc(N(C)S(C)(=O)=O)c(-c3cnnc(-n4ncc5c(F)cccc54)c3)cc12 [Compound 264] | 10 nM | 25 nM |
| CNC(=O)c1c(-c2ccc(F)cc2)oc2cc(N3CCCC3=O)c(-c3cncc(-c4nc5c(s4)CCCC5(F)F)c3)cc12 [Compound 155, 5-(5-(4,4-difluoro-4,5,6,7-tetrahydrobenzo[d]thiazol-2-yl)pyridin-3-yl)-2-(4-fluorophenyl)-N-methyl-6-(2-oxopyrrolidin-1-yl)benzofuran-3-carboxamide] | 1 nM | 2.9 nM |
| CNC(=O)c1c(-c2ccc(F)cc2)oc2cc(N(CC(F)F)S(C)(=O)=O)c(-c3cc(-c4nc5ncccc5o4)ccn3)cc12 [Compound 170] | 5.1 nM | 27 nM |
| CNC(=O)c1c(-c2ccc(F)cc2)oc2cc(N(C)S(C)(=O)=O)c(-c3ccc(O)c(C4Cc5c(F)cccc5N4)n3)cc12 (centres unmarked) [Compound 257, 5-(6-(4-fluoroindolin-2-yl)-5-hydroxypyridin-2-yl)-2-(4-fluorophenyl)-N-methyl-6-(N-methylmethylsulfonamido)benzofuran-3-carboxamide] | 10 nM | 13 nM |
